Here are results for 3 molecules from patent US11541037B2, “Alkaloids from sponge, scaffolds for the inhibition of human immunodeficiency virus (HIV)” (King Abdullah University of Science and Technology, priority 2014, dated 2023).

≈ marks a conversion by molar mass, not a printed value. Entries after “also recorded” stand apart in the source; their conditions may differ. Read-outs that look alike come from different tables or passages of the source. Where only a bound is given, the exact number is not on record here.

The test system of data set [1] is LC5-RIC cells. Description: MTT cell proliferation (vitality) assay of infected LC5-RIC cells. The settings on record: for concentrations at which cytotoxicity was observed / cytotoxicity (in words): LC5-RIC cells; for cytotoxicity (in words): tested concentrations 3.1-50 μM. The format is cell-based. Here is the method: The colorimetric assay […] was used in order to assess the viability and activity of LC5-RIC cells exposed to the unknown sponge mixtures, SPE fraction 1 and HPLC fractions 1-11, for three biological replicates. This cell vitality assay provides a visualization of the process where mitochondrial enzymes reduce the yellow MTT to purple formazan (ATCC, MTT cell proliferation assay). After reading the HIV reporter expression, cultures were incubated with 100 μl of MTT solution (0.5 mg of […]; Sigma, Taufkirchen, Germany) in 100 μl of culture medium for 2 hours. MTT solution was removed and 100 μl of lysis solution (10% [wt/vol] SDS and 0.6% [vol/vol] acetic acid in dimethyl sulfoxide [DMSO]) was added. The formazan concentrations of the test compounds and the uninfected control cultures were determined by an ELISA plate reader (Tecan Infinite M200, Tecan Germany GmbH, Crailsheim) and scanned with a test wavelength of 570 nm and a reference wavelength of 630 nm.

Data set [2] concerns HIV-1.
Description: (§1) The EASY-HIT assay (Kremb et al. [11]) is based on HIV-1 susceptible reporter cells (LC5-RIC) that contain a stably integrated fluorescent reporter gene that is activated upon successful HIV-1 infection and expression of the early viral proteins Rev and Tat. LC5-RIC were seeded into 96-well plates (μCLEAR-Plate Black; Greiner Bio-One, Kremsmuenster, Germany) using only the 60 inner wells to avoid variations in the culture conditions in the outer wells. Cells were seeded ata density of 10,000 cells per well 24 hours prior to infection. SPE fractions for the biological replicates C26, C14 and D5, were tested in a serial 1:2-dilution with a maximum of 3% methanol or approximately 75 μg/ml for the S. carteri fraction 1 mixture on the EASY-HIT assay [11]. For the HPLC fractions, SPE fraction 1 HPLC fractions 1-11, were tested on the EASY-HIT assay for biological replicates C26, C14 and D5. The authentic samples of HD, DBH, and oroidin were screened at 3.1 μM, 6.25 μM, 12.5 μM, 25 μM, and 50 μM. All samples were tested in triplicates. After compound addition, LC5-RIC cells were infected by adding 20 μl of HIV-1 inoculum (approx. 28.8 ng of p24 for HIV-1LAI derived from HEK 293T cells) to each well of the plate. Cells were incubated at standard cell culture conditions for 48 hours after infection and were subsequently assayed for reporter expression and cell viability.
(§2) Reporter expression was determined by measuring the total fluorescent signal intensity of each culture with a fluorescence microplate reader (Fluoroskan Ascent; ThermoFisher, Schwerte, Germany) at an excitation filter wavelength of 544 nm and an emission filter wavelength of 590 nm or with a Tecan infinite M200 (Tecan, Crailsheim, Germany) at the monochromator wavelengths 552 nm for excitation and 596 for emission. Statistical significances were determined using one-way ANOVA.
Data set [3] deals with T1, HIV-1 reverse transcriptase (Human immunodeficiency virus type 1 group M subtype B, UniProt P04585).
T1 construct: The reverse transcriptase is a heterodimer with the p66 and the p51 subunits; purchased Calbiochem, Merck-Millipore
In words: HIV-1 reverse transcriptase biochemical assay (EnzChek). The settings on record: for anti-HIV-1 RT activity (in words): screened at 3.1-100 μM. Here is the method: The HIV-1 reverse transcriptase inhibition assay was carried out using the commercial kit EnzChek® Reverse Transcriptase Assay (Invitrogen, San Jose, Calif., USA). The reverse transcriptase is a heterodimer with the p66 and the p51 subunits with RNase H activity located in the last 15 KDa of the p66 HIV Reverse transcriptase (Calbiochem, Merck-Millipore). Polymerase activity was assessed by its ability to produce RNA-DNA heteroduplexes from a mixture of a long poly (A) template, an oligo dT primer and dTTP which is then detected by PicoGreen® dsDNA quantitation reagent. The single compound and controls were performed in triplicated in a 384-well plate format, each with a total reaction mixture of 50 μL. To begin, the poly (A) template was annealed to the oligo dT primer for one hour, then diluted 200 fold in polymerization buffer. Reverse transcriptase (1.2 μl) was added per 300 reactions. This mixture was kept on ice and aliquoted to each well with test compounds. The reaction was incubated at room temperature for one hour and then 2 μl of […] EDTA was added to stop the reaction. The RNA-DNA heteroduplex was labeled with PicoGreen and incubated for 5 minutes and then detected with the use of a SpectraMax® Paradigm® Multi-mode Microplate Detection Platform (Molecular Devices, Sunnyvale, Calif., USA) by scanning at 480 nm excitation wavelength and 520 nm emission wavelength. […] Statistical significances were determined using a one-way ANOVA.

The conditions of data set [4]: vendor data, Enzo Life Sciences, cited from earlier work.
For data set [5], the system named is HIV-1. Description: microbe, parasite or virus in culture. The settings on record: Human immunodeficiency virus 1, read-out: concentration giving 50% inhibition of HIV-1 (viral replication).
Description: as §1, §2
In data set [6] the test system is HIV. The settings on record: concentrations not detailed; cited from earlier work.

For the molecule `NC1=NC(=O)/C(=C2\CCNC(=O)c3[nH]c(Br)cc32)N1` [HD, 10Z-Hymenialdisine], the “effect on cell vitality” value in data set [1] (3.1 μM) is listed as “without affecting cell vitality”. Moreover, in data set [1], the “concentrations at which cytotoxicity was observed” value is listed as “greater than 3.1 μM” and the “cytotoxicity (in words)” value is on record as “exhibited cytotoxicity”. In addition, the “HIV infection, % of untreated controls” value in data set [2] (3.1 μM) was less than 40%. The “inhibition of HIV-1 replication (in words)” value in data set [2] (EASY-HIT, LC5-RIC cells) is “capable of inhibiting HIV-1 replication”. In addition, the “anti-HIV-1 RT activity (in words)” value in data set [3] is “did not show anti-HIV-1 RT activity; also recorded: do not affect this enzyme”. The “solubility in DMSO” value in data set [4] (DMSO) is 5000 µg/mL (≈ 15.4 mM). Besides, in data set [5], the IC50 came out at 13 µM.

Take `Nc1ncc(/C=C/CNC(=O)c2cc(Br)c(Br)[nH]2)[nH]1` [oroidin]: the “cytotoxicity (in words)” value was “non-cytotoxic at all tested concentrations; also recorded: without causing cytotoxicity; also recorded: no associated toxicity” in data set [1] and “nontoxic for cells at all tested concentrations” in data set [1] (listed as Oroidin). The “HIV-1 infection, % of untreated controls” value in data set [2] (50 μM) is recorded as 50%. Moreover, the “reduction of HIV-1 replication” value in data set [2] (50 μM) was “up to 50%”. Also, the “inhibition of HIV-1 replication (in words)” value in data set [2] (EASY-HIT, LC5-RIC cells) is on record as “capable of inhibiting HIV-1 replication”; in data set [2] (EASY-HIT, LC5-RIC cells, listed as Oroidin), “weakest antiviral activity”. Moreover, the IC50 in data set [2] (read-out: concentration giving 50% inhibition of HIV-1 (viral replication), EASY-HIT, LC5-RIC cells, purchased pure compounds) stood at 50 µM. Moreover, the “ability to inhibit HIV replication, previous study” value in data set [6] is “inactive”. Moreover, the “inhibition of HIV-1 reverse transcriptase activity” value in data set [3] (25 μM) was “up to 90%”. Also, the “inhibition of the HIV-1 RT enzyme” value in data set [3] (concentrations greater than 25 μM) was found to be 90%. Moreover, in data set [3], the “anti-HIV-1 RT activity (in words)” value is listed as “directly acting to inhibit the retroviral reverse transcriptase”.

Take `NC1=NC(=O)/C(=C2\CCNC(=O)c3[nH]ccc32)N1` [DBH, 4-(2-Amino-4-oxo-2-imidazolin-5-ylidene)-4,5,6,7-tetrahydropyrrolo[2,3-c]azepin-8-one]: the “effect on cell vitality” value in data set [1] (13 μM) was “without affecting cell vitality”. Moreover, in data set [1], the “concentrations at which cytotoxicity was observed” value is given as “greater than 13 μM” and the “cytotoxicity (in words)” value is “exhibited cytotoxicity”. In addition, the “HIV-1 infection, % of untreated controls” value in data set [2] (13 μM) was found to be 30%. The “anti-HIV-1 RT activity (in words)” value in data set [3] is reported as “did not show anti-HIV-1 RT activity; also recorded: do not affect this enzyme”. Moreover, the “solubility (in words)” value in data set [4] was “Soluble in 100% ethanol or DMSO”. Besides, the IC50 in data set [5] was 7 µM.
